From PubChem BioAssay (NCI)
Several values for one entry are separate records, joined by “and”; a condition that tells them apart may be missing. Equal values may be shown once.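 Values below derive from 48-hour exposures of cells grown in 96-well plates, with endpoints linearly interpolated between the two concentrations bracketing the appropriate inhibition level. GI50: concentration for 50% inhibition of growth. TGI denotes the concentration required for complete inhibition of growth.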

Key:
Test in all cases: DTP human tumour cell line panel, 48 h
OVCAR-8 ovarian = system: OVCAR-8 ovarian
SK-MEL-2 melanoma = system: SK-MEL-2 melanoma
786-0 renal = system: 786-0 renal
MOLT-4 leukemia = system: MOLT-4 leukemia
MDA-MB-435 = system: MDA-MB-435
HCT-116 colon = system: HCT-116 colon
SK-OV-3 ovarian = system: SK-OV-3 ovarian
SF-268 CNS = system: SF-268 CNS
SNB-75 CNS = system: SNB-75 CNS
HCT-15 colon = system: HCT-15 colon

Compound | GI50 (OVCAR-8 ovarian) | TGI (OVCAR-8 ovarian) [µM] | GI50 (SK-MEL-2 melanoma) [µM] | TGI (SK-MEL-2 melanoma) [µM] | GI50 (786-0 renal) | TGI (786-0 renal) | TGI (MOLT-4 leukemia) [µM] | GI50 (MDA-MB-435) [µM] | TGI (MDA-MB-435) | GI50 (HCT-116 colon) | TGI (HCT-116 colon) [µM] | GI50 (SK-OV-3 ovarian) | TGI (SK-OV-3 ovarian) [µM] | GI50 (SF-268 CNS) [µM] | TGI (SF-268 CNS) [µM] | GI50 (SNB-75 CNS) [µM] | TGI (SNB-75 CNS) [µM] | GI50 (HCT-15 colon) | TGI (HCT-15 colon) [µM] | GI50 (MOLT-4 leukemia)
O=C1c2ccccc2-c2c1c1ccccc1c(=O)n2CCNCCNCCn1c2c(c3ccccc3c1=O)C(=O)c1ccccc1-2 | 0.226 µM | 2.29 | 19.1 | > 48.2 | 0.0267 µM | 2.37 µM | > 100 | 0.97 | 19.6 µM | 0.0159 µM | 1.42 | 12.8 µM | 36.2 | 0.241 | 10 | 7.95 | 47.5 | 0.0545 µM | 1.31 | –
Cc1[nH]c(/C=C2\C(=O)Nc3ccc(F)cc32)c(C)c1C(=O)NC[C@H](O)CN1CCOCC1 | 5.41 µM | > 10 | 2.16 | 8.68 | 4.91 µM | > 10 µM | > 10 | 3.2 | > 10 µM | 2.42 µM | > 10 | 2.95 µM | > 10 | 4.83 | > 10 | 7.33 | > 10 | 2.83 µM | > 10 | 2.61 µM
COc1ccc(-c2nc(-c3ccccc3)c(-c3ccccc3)n2C2CC2)cc1OC1CCCC1 | 66.6 µM | > 165 | 105 | > 165 | 98.2 µM | > 165 µM | > 165 | 147 | > 165 µM | 14.1 µM | > 165 | > 165 µM | > 165 | 44.9 | > 165 | 48.4 | > 165 | 7.26 µM | > 165 | 45.7 µM
O=C(Nc1ncc(Cc2ccccc2Cl)s1)c1ccc2c(c1)OCCO2 | 0.479 µM | > 100 | 0.667 | > 69.6 | 0.574 µM | > 100 µM | > 100 | 0.0399 | 0.22 µM | 0.335 µM | > 100 | 0.537 µM | 22.6 | 1.8 | > 100 | 0.262 | 6.55 | 0.119 µM | > 100 | 0.581 µM
N=C(N)CCCCCCCCC(=N)N | 10.9 µM | > 100 | > 100 | > 100 | > 100 µM | > 100 µM | > 100 | > 100 | > 100 µM | 22.8 µM | > 100 | 22.1 µM | > 100 | 42.6 | > 100 | 29.1 | > 100 | 47.2 µM | > 100 | 46.4 µM
COc1ccc(-c2cn[nH]c2-c2cc(OC)c(OC)c(OC)c2)cc1N | < 0.01 µM and 0.0519 µM | > 100 | – | > 100 | < 0.01 µM and 0.0611 µM | 86.5 µM and > 56.6 µM | > 100 | < 0.01 | < 0.01 µM and 0.0309 µM | < 0.01 µM and 0.0344 µM | > 100 | < 0.01 µM and 0.0833 µM | > 100 | – | > 100 | < 0.01 | > 100 | < 0.01 µM and 0.0298 µM | > 100 | < 0.01 µM and 0.0429 µM
Cc1cc2c(F)c(Oc3ncnn4cc(OC[C@@H](C)OC(=O)[C@H](C)N)c(C)c34)ccc2[nH]1 | 8.96 µM | 23.1 | 19.9 | 35.3 | 12 µM | 26.9 µM | 23.5 | 11.3 | 23.8 µM | 3.38 µM | 18.9 | 12.4 µM | 26.7 | 8 | 23.5 | 9.42 | 24.6 | 0.882 µM | 14 | 7.25 µM
C=C(CN1CCc2ccccc2C1)c1ccc(C(=O)Nc2ccc(N)cc2)cc1 | 22.6 µM | 77.7 | 24.4 | > 100 | 22.9 µM | > 100 µM | 53 | 3.11 | 11.3 µM | 11.9 µM | > 100 | 19.5 µM | 53.7 | 23.5 | > 100 | 9.87 | 53.6 | 32.2 µM | > 100 | 1.93 µM
C[C@]12CC[C@@H]3c4ccc(O)cc4CC[C@H]3[C@@H]1CC[C@@H]2NS(=O)(=O)Cc1ccc(Cl)cc1 | 2.52 µM | 7.58 | 2.54 | 6.35 | 2.66 µM | 6.87 µM | 31.3 | 2.78 | 9.03 µM | 1.92 µM | 3.97 | 3.02 µM | 7.77 | 3.16 | 12.5 | 2.08 | 9.75 | 2.33 µM | 7.76 | 2.62 µM
O=C(Oc1ccc(CCl)cc1)c1ccccc1 | 0.155 µM | 0.291 | 0.175 | 0.358 | 0.125 µM | 0.286 µM | 0.538 | 0.155 | 0.299 µM | 0.138 µM | 0.426 | 0.386 µM | 1.42 | 0.17 | 0.326 | 0.172 | 0.356 | 0.181 µM | 0.393 | 0.188 µM
Cc1ccc2c(=O)c3cccc(CC(=O)O)c3oc2c1C | > 100 µM | > 100 | > 100 | > 100 | > 100 µM | > 100 µM | > 100 | > 100 | > 100 µM | > 100 µM | > 100 | > 100 µM | > 100 | > 100 | > 100 | > 100 | > 100 | > 100 µM | > 100 | > 100 µM
